Test results published in ChEMBL document CHEMBL1134647, “Design and synthesis of non-peptidic inhibitors for the Syk C-terminal SH2 domain based on structure-based in-silico screening” (J Med Chem, 2001).

Experiments:
Assay type in all cases: functional
[1] = target: T1, Tyrosine-protein kinase SYK (Homo sapiens, UniProt P43405); assay: Inhibitory activity against Syk C-terminal SH2.
[2] = target: T1, Tyrosine-protein kinase SYK; assay: Inhibitory activity against Syk C-terminal SH2 at 10 mM
[3] = target: T1, Tyrosine-protein kinase SYK; assay: Inhibitory activity against Syk C-terminal SH2 domain in in-silico screening
[4] = target: T1, Tyrosine-protein kinase SYK; assay: Inhibitory activity against Syk C-terminal SH2 (at 10 mM)

Question: Which IC50 [1] does the source give for `CC(C)CCCCN(CCCCCC(=O)O)S(=O)(=O)/C=C/c1ccc(NC(=O)[C@H]2CC[C@H](C(C(=O)O)C(=O)O)CC2)cc1` here?
Answer: 69 µM

Question: `O=C(O)C(C(=O)O)C1CC/C=C\CCC1` (stereo not given) was tested. Which IC50 [1] did it give?
Answer: 7700 µM

Question: Which inhibition [2] does the source give for `O=C(O)CCNS(=O)(=O)c1ccc(F)cc1` here?
Answer: 0.9%

Question: Which inhibition [2] does the source give for `Nc1cccc2c(S(=O)(=O)NCC(=O)O)cccc12` here?
Answer: 39%

Question: `O=C(O)C(C(=O)O)C1CCCCC1` was tested. Which IC50 [1] did it give?
Answer: 5900 µM

Question: For `CC(C)CCCCN(CCCCCC(=O)O)S(=O)(=O)/C=C/c1ccc(NC(=O)[C@H]2CC[C@@H](C(C(=O)O)C(=O)O)CC2)cc1`, which IC50 [1] is on record?
Answer: 63 µM

Question: For `NC(Cc1ccc(CP(=O)(O)O)cc1)C(=O)O` (stereo not given), which IC50 [3] is on record?
Answer: 14000 µM

Question: `O=C(O)CCCCCN(CCCC1CCCCC1)S(=O)(=O)/C=C/c1ccc(NC(=O)[C@H]2CC[C@H](C(C(=O)O)C(=O)O)CC2)cc1` was tested. Which IC50 [1] did it give?
Answer: 38 µM

Question: `O=C(O)C(C(=O)O)c1ccccc1` was tested. Which IC50 [1] did it give?
Answer: 12000 µM

Question: `O=C(O)CCCCCNS(=O)(=O)/C=C/c1ccccc1` was tested. Which IC50 [4] did it give?
Answer: 8000 µM

Question: With `CC(C)CCCCN(CCCCCC(=O)O)S(=O)(=O)/C=C/c1ccc(NC(=O)C2CC=C(C(C(=O)O)C(=O)O)CC2)cc1` (stereo not given) as the compound, how does the IC50 [1] read?
Answer: 71 µM

Question: Which IC50 [1] does the source give for `O=C(O)CCCCCNS(=O)(=O)/C=C/c1ccc(NC(=O)[C@H]2CC[C@H](C(C(=O)O)C(=O)O)CC2)cc1` here?
Answer: 350 µM

Question: Which inhibition [2] does the source give for `O=C(O)CCCNS(=O)(=O)/C=C/c1ccccc1` here?
Answer: 2.3%

Question: `O=C(O)CCCCCN(CCCC1CCCCC1)S(=O)(=O)/C=C/c1ccc(NC(=O)C2CC=C(C(C(=O)O)C(=O)O)CC2)cc1` (stereo not given) was tested. Which IC50 [1] did it give?
Answer: 41 µM

Question: How did the IC50 [1] turn out when `O=C(O)CCCCCN(CCCC1CCCCC1)S(=O)(=O)/C=C/c1ccc(NC(=O)[C@H]2CC[C@@H](C(C(=O)O)C(=O)O)CC2)cc1` was run?
Answer: 40 µM
